This passage reports IC50 and EC50 results from patent publication US20230339981A1, “KRAS G12D MODULATING COMPOUNDS” (priority 2022, published 2023).

For one assay, the target named is GDP-loaded KRAS G12D (Homo sapiens (Human), UniProt P01116, G12D). Kind of assay: KRAS G12D (GDP) biochemical assay (TR-FRET probe displacement). It is filed as binding. To be noted: 2 hours. Put shortly:
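TR-FRET probe displacement: 1:3 DMSO serial dilutions pre-incubated 30 min with GDP-bound KRAS G12D, followed by Eu-streptavidin/probe for 2 h at room temperature (Hepes pH 7.4, NaCl, MgCl2, Tween-20 buffer). IC50 defined as concentration halving TR-FRET ratio, from sigmoidal dose-response fit.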

A further assay relates to GP2D (KRAS G12D) cells. Kind of assay: 2D cell viability assay (CellTiter-Glo). To be noted: GP2d, 96 h, 4 days. It is filed as cell-based. Put shortly: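 Viability was read by CellTiter-Glo after 4 days at 37 °C of 2D culture of KRAS G12D GP2D cells (1000/well, RPMI, 10% FBS) on pre-spotted threefold compound dilutions. EC50 was fitted with a sigmoidal dose-response model as the point of half-maximal luminescence loss.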
For orientation: ATP-based viability assays read luminescence as a measure of living cells.

A further assay deals with AsPC-1 (KRAS G12D) cells. Description: 3D cell viability assay (spheroids, CellTiter-Glo 3D). To be noted: Homo sapiens, ASPC1, 96 h, AsPC-1 cells, 3D spheroids, 4 days. The format is cell-based. Here is the method:
Example C. 3D Cell Viability Assay
Compounds were tested in a 384-well format for their ability to inhibit the viability of AsPC-1 (KRAS G12D) cells in 3D assays. On day 0, 1000 cells/well (80 μL volume per well) in DMEM with 10% FBS, and Penicillin-Streptomycin-Glutamine were plated in 384-well Ultra-Low Attachment Spheroid Microplates (Corning, Catalog #3830) on the BioTEK EL406 liquid dispenser with a 5 μL dispensing cassette (BioTek 7170011). The plates were incubated at 37° C., 5% CO2 for 3 days to allow spheroid formation. On day 3, compounds were serially diluted (1:3) in DMSO. The Biomek FX was used to add 400 nL of test molecule per well. The plates were incubated at 37° C., 5% CO2 for 4 days before addition of CellTiter-Glo 3D (Promega, Catalog #9683) reagent and measurement of luminescence signal. EC50 values were defined as the compound concentration that causes a 50% decrease in luminescence signal and were calculated using a sigmoidal dose-response model to generate curve fits.

Sequence of GDP-loaded KRAS G12D (P01116-2 other isoform, or with tags, fused parts or gaps G12D): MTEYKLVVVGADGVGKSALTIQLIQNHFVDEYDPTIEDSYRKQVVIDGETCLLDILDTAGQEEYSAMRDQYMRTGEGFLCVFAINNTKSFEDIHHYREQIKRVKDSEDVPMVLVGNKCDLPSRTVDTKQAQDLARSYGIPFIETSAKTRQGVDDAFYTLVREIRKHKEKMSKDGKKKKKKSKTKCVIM

Usually IC50 stands for the concentration that gives 50% inhibition. A high value points to lower potency. By EC50 is commonly meant the concentration needed to bring the measured effect to its halfway point. Low values mean a more potent agent, high ones a less potent agent. Compound `C#Cc1c(F)ccc2cc(O)cc(-c3nc4c5c(nc(OC[C@]67CC(=C)CN6C[C@H](F)C7)nc5c3F)N3C[C@H]5CC[C@H](N5)[C@H]3CO4)c12` [Example 13, 5-ethynyl-6-fluoro-4-((5aS,6S,9R)-1-fluoro-12-(((2R,7aR)-2-fluoro-6-methylenetetrahydro-1H-pyrrolizin-7a(5H)-yl)methoxy)-5a,6,7,8,9,10-hexahydro-5H-4-oxa-3,10a,11,13,14-pentaaza-6,9-methanonaphtho[1,8-ab]heptalen-2-yl)naphthalen-2-ol] displayed an IC50 at GDP-loaded KRAS G12D of 0.4 nM. The 50% effective concentration (EC50) stood at 2 nM with GP2D (KRAS G12D) cells and 17 nM with AsPC-1 (KRAS G12D) cells.

`Oc1cc(-c2nc3c4c(nc(OC[C@@]56CCCN5C[C@H](F)C6)nc4c2F)N2C[C@H]4CC[C@H](N4)[C@H]2CO3)c2c(Cl)cccc2c1` [Example 17, 5-chloro-4-((5aS,6S,9R)-1-fluoro-12-(((2R,7aS)-2-fluorotetrahydro-1H-pyrrolizin-7a(5H)-yl)methoxy)-5a,6,7,8,9,10-hexahydro-5H-4-oxa-3,10a,11,13,14-pentaaza-6,9-methanonaphtho[1,8-ab]heptalen-2-yl)naphthalen-2-ol] came in with an IC50 at GDP-loaded KRAS G12D of 0.4 nM. Besides, the EC50 in the assay with GP2D (KRAS G12D) cells amounted to 49 nM; with AsPC-1 (KRAS G12D) cells, 180 nM.

`Oc1cc(-c2nc3c4c(nc(OC[C@@]56CCCN5C[C@H](F)C6)nc4c2F)N2C[C@H]4CC[C@H](N4)[C@H]2CO3)c2ccccc2c1` [Example 20, 4-((5aS,6S,9R)-1-fluoro-12-(((2R,7aS)-2-fluorotetrahydro-1H-pyrrolizin-7a(5H)-yl)methoxy)-5a,6,7,8,9,10-hexahydro-5H-4-oxa-3,10a,11,13,14-pentaaza-6,9-methanonaphtho[1,8-ab]heptalen-2-yl)naphthalen-2-ol] displayed a concentration for half-maximal inhibition (IC50) on GDP-loaded KRAS G12D of 7 nM. The EC50 is 210 nM in the assay with GP2D (KRAS G12D) cells and greater than 1000 nM in the assay with AsPC-1 (KRAS G12D) cells.

At GDP-loaded KRAS G12D, `C#Cc1c(F)ccc2cc(O)cc(-c3nc4c5c(nc(OC[C@@]67CCCN6C[C@H](F)C7)nc5c3F)N3C[C@H]5CC[C@H](N5)[C@H]3CC4)c12` [Example 22, 5-ethynyl-6-fluoro-4-((5aR,6S,9R)-1-fluoro-12-(((2R,7aS)-2-fluorotetrahydro-1H-pyrrolizin-7a(5H)-yl)methoxy)-4,5,5a,6,7,8,9,10-octahydro-3,10a,11,13,14-pentaaza-6,9-methanonaphtho[1,8-ab]heptalen-2-yl)naphthalen-2-ol] had an IC50 of 0.1 nM. The half-maximal effective concentration (EC50) was determined as 0.6 nM in the assay with GP2D (KRAS G12D) cells and 2 nM with AsPC-1 (KRAS G12D) cells.

As to `C#Cc1c(F)ccc2cccc(-c3nc4c5c(nc(OC[C@@]67CCCN6C[C@H](F)C7)nc5c3F)N3C[C@H]5CC[C@H](N5)[C@H]3CC4)c12` [Example 23, (5aR,6S,9R)-2-(8-ethynyl-7-fluoronaphthalen-1-yl)-1-fluoro-12-(((2R,7aS)-2-fluorotetrahydro-1H-pyrrolizin-7a(5H)-yl)methoxy)-4,5,5a,6,7,8,9,10-octahydro-3,10a,11,13,14-pentaaza-6,9-methanonaphtho[1,8-ab]heptalene], the 50% inhibitory concentration (IC50) at GDP-loaded KRAS G12D stood at 1 nM. The concentration giving a half-maximal response (EC50) in the assay on GP2D (KRAS G12D) cells turned out to be 9 nM; in the assay on AsPC-1 (KRAS G12D) cells, 31 nM.

With `Oc1cc(-c2nc3c4c(nc(OC[C@@]56CCCN5C[C@H](F)C6)nc4c2F)N2C[C@H]4CC[C@H](N4)[C@H]2CC3)c2ccccc2c1` [Example 24, 4-((5aR,6S,9R)-1-fluoro-12-(((2R,7aS)-2-fluorotetrahydro-1H-pyrrolizin-7a(5H)-yl)methoxy)-4,5,5a,6,7,8,9,10-octahydro-3,10a,11,13,14-pentaaza-6,9-methanonaphtho[1,8-ab]heptalen-2-yl)naphthalen-2-ol], on GDP-loaded KRAS G12D, the IC50 was found to be 1 nM. The concentration giving a half-maximal response (EC50) with GP2D (KRAS G12D) cells came out at 17 nM; with AsPC-1 (KRAS G12D) cells, 190 nM.

As for `Oc1cc(-c2nc3c4c(nc(OC[C@@]56CCCN5C[C@H](F)C6)nc4c2F)N2C[C@H]4CC[C@H](N4)[C@H]2CC3)c2c(F)c(F)ccc2c1` [Example 27, 5,6-difluoro-4-((5aR,6S,9R)-1-fluoro-12-(((2R,7aS)-2-fluorotetrahydro-1H-pyrrolizin-7a(5H)-yl)methoxy)-4,5,5a,6,7,8,9,10-octahydro-3,10a,11,13,14-pentaaza-6,9-methanonaphtho[1,8-ab]heptalen-2-yl)naphthalen-2-ol], the IC50 on GDP-loaded KRAS G12D is 0.7 nM. Also, the concentration for a half-maximal effect (EC50) with GP2D (KRAS G12D) cells is 4 nM; in the assay on AsPC-1 (KRAS G12D) cells, 29 nM.

As for `C#Cc1c(F)c(F)cc2cc(O)cc(-c3nc4c5c(nc(OC[C@@]67CCCN6C[C@H](F)C7)nc5c3F)N3C[C@H]5CC[C@H](N5)[C@H]3CO4)c12` [Example 30, 5-ethynyl-6,7-difluoro-4-((5aS,6S,9R)-1-fluoro-12-(((2R,7aS)-2-fluorotetrahydro-1H-pyrrolizin-7a(5H)-yl)methoxy)-5a,6,7,8,9,10-hexahydro-5H-4-oxa-3,10a,11,13,14-pentaaza-6,9-methanonaphtho[1,8-ab]heptalen-2-yl)naphthalen-2-ol], at GDP-loaded KRAS G12D, the half-inhibitory concentration (IC50) is 0.2 nM. For the same compound, the EC50 in the assay on GP2D (KRAS G12D) cells is 11 nM; in the assay with AsPC-1 (KRAS G12D) cells it was 260 nM.

In turn, `C#Cc1c(F)ccc2cc(O)cc(-c3nc4c5c(nc(OCC6(CN7CCCOCC7)CC6)nc5c3F)N3C[C@H]5CC[C@H](N5)[C@H]3CO4)c12` [Example 35, 4-((5aS,6S,9R)-12-((1-((1,4-oxazepan-4-yl)methyl)cyclopropyl)methoxy)-1-fluoro-5a,6,7,8,9,10-hexahydro-5H-4-oxa-3,10a,11,13,14-pentaaza-6,9-methanonaphtho[1,8-ab]heptalen-2-yl)-5-ethynyl-6-fluoronaphthalen-2-ol] had a 50% inhibitory concentration (IC50) on GDP-loaded KRAS G12D of 0.3 nM. Moreover, the EC50 was 6 nM in the assay with GP2D (KRAS G12D) cells and 17 nM with AsPC-1 (KRAS G12D) cells.

On GDP-loaded KRAS G12D, `C#Cc1c(F)ccc2cc(O)cc(-c3nc4c5c(nc(OC[C@@]67CCCN6[C@H](COC(=O)N6CCCCCC6)CC7)nc5c3F)N3C[C@H]5CC[C@H](N5)[C@H]3CO4)c12` [Example 38, ((3S,7aS)-7a-((((5aS,6S,9R)-2-(8-ethynyl-7-fluoro-3-hydroxynaphthalen-1-yl)-1-fluoro-5a,6,7,8,9,10-hexahydro-5H-4-oxa-3,10a,11,13,14-pentaaza-6,9-methanonaphtho[1,8-ab]heptalen-12-yl)oxy)methyl)hexahydro-1H-pyrrolizin-3-yl)methyl azepane-1-carboxylate] displayed an IC50 of 0.3 nM. The EC50 in the assay with GP2D (KRAS G12D) cells turned out to be 28 nM; in the assay on AsPC-1 (KRAS G12D) cells, 47 nM.

As to `C#Cc1c(F)ccc2cc(O)cc(-c3nc4c5c(nc(OC[C@@]67CCCN6[C@H](COC(=O)N(C)C)CC7)nc5c3F)N3C[C@H]5CC[C@H](N5)[C@H]3CO4)c12` [Example 39, ((3S,7aS)-7a-((((5aS,6S,9R)-2-(8-ethynyl-7-fluoro-3-hydroxynaphthalen-1-yl)-1-fluoro-5a,6,7,8,9,10-hexahydro-5H-4-oxa-3,10a,11,13,14-pentaaza-6,9-methanonaphtho[1,8-ab]heptalen-12-yl)oxy)methyl)hexahydro-1H-pyrrolizin-3-yl)methyl dimethylcarbamate], the IC50 on GDP-loaded KRAS G12D is 0.4 nM. The 50% effective concentration (EC50) with GP2D (KRAS G12D) cells was determined as 48 nM; with AsPC-1 (KRAS G12D) cells it was 96 nM.

At GDP-loaded KRAS G12D, `Oc1cc(-c2nc3c4c(nc(OC[C@@]56CCCN5C[C@H](F)C6)nc4c2F)N2C[C@H]4CC[C@H](N4)[C@H]2CC3)c2c(F)c(Cl)ccc2c1` [Example 40, 6-chloro-5-fluoro-4-((5aR,6S,9R)-1-fluoro-12-(((2R,7aS)-2-fluorotetrahydro-1H-pyrrolizin-7a(5H)-yl)methoxy)-4,5,5a,6,7,8,9,10-octahydro-3,10a,11,13,14-pentaaza-6,9-methanonaphtho[1,8-ab]heptalen-2-yl)naphthalen-2-ol] gave an IC50 of 2 nM. Also, the values for the concentration for a half-maximal effect (EC50) with GP2D (KRAS G12D) cells and with AsPC-1 (KRAS G12D) cells were 19 nM and 74 nM, respectively.

In the case of `Oc1cc(-c2nc3c4c(nc(OC[C@@]56CCCN5C[C@H](F)C6)nc4c2F)N2C[C@H]4CC[C@H](N4)[C@H]2CC3)c2c(OC(F)(F)F)c(F)ccc2c1` [Example 41, 6-fluoro-4-((5aR,6S,9R)-1-fluoro-12-(((2R,7aS)-2-fluorotetrahydro-1H-pyrrolizin-7a(5H)-yl)methoxy)-4,5,5a,6,7,8,9,10-octahydro-3,10a,11,13,14-pentaaza-6,9-methanonaphtho[1,8-ab]heptalen-2-yl)-5-(trifluoromethoxy)naphthalen-2-ol], the IC50 at GDP-loaded KRAS G12D was 0.6 nM. Moreover, the 50% effective concentration (EC50) is 3 nM in the assay with GP2D (KRAS G12D) cells and 8 nM with AsPC-1 (KRAS G12D) cells.

Turning to `Oc1cc(-c2nc3c4c(nc(OC[C@@]56CCCN5C[C@H](F)C6)nc4c2F)N2C[C@H]4CC[C@H](N4)[C@H]2CO3)c2c(OC3CC3)c(F)ccc2c1` [Example 42, 5-cyclopropoxy-6-fluoro-4-((5aS,6S,9R)-1-fluoro-12-(((2R,7aS)-2-fluorotetrahydro-1H-pyrrolizin-7a(5H)-yl)methoxy)-5a,6,7,8,9,10-hexahydro-5H-4-oxa-3,10a,11,13,14-pentaaza-6,9-methanonaphtho[1,8-ab]heptalen-2-yl)naphthalen-2-ol], the concentration for half-maximal inhibition (IC50) at GDP-loaded KRAS G12D was 2 nM. Moreover, the half-maximal effective concentration (EC50) was 28 nM with GP2D (KRAS G12D) cells and 95 nM in the assay with AsPC-1 (KRAS G12D) cells.
